Source: patent publication US20060281807A1, “Quassinoid compositions for the treatment of cancer and other proliferative diseases” (Tapestry Pharmaceuticals, Inc., priority 2005, published 2006)

What was measured:
LS-174T = assay: MTT cytotoxicity assay (% kill), LS-174T; assay type: cell-based, human; conditions: 1.0 μg/mL, MTT after five days
Procedure: (§1) The following human tumor cell lines were obtained and cultured in sextuplicate microwells at 37° C. and 5% CO2 in humidified air and in 10% FBS in Eagles MEM: SK—N—FI, SK—N-AS, LS-174T, WiDr, HuTu-80, MCF7, NCI-AR, MES-Sar, and PL-45. Cells from each cell line were separately treated with an amount of one of the compounds of Formula I, II, or III (see Table 1). Cells were exposed to each compound (0.1 μg/mL or 1.0 μg/mL) for one hour or 24 hours, rinsed with drug-free media, and incubated for an additional five days. The number of viable cells after five days was measured using an MTT (3-(4,5-dimethylthiazol-2-yl)-2,5-diphenyltetrazolium bromide) assay (see, e.g., Mosmann, J. Immunol. Methods, 65(1-2), 55-63 (1983)).
(§2) The cytotoxicity of each drug was determined and expressed as the percent of cells killed (“% kill”).

SK-N-AS = assay: MTT cytotoxicity assay (% kill), SK-N-AS; assay type: cell-based, human; conditions: 1.0 μg/mL, MTT after five days
Procedure: as §1, §2

[1] = test system: Colon 38 (murine colon adenocarcinoma); assay: Disk diffusion assay, zone of inhibition, Colon 38; zone differentials, potency and product; assay type: cell-based; parameters: key to C38ΔL1210 / C38ΔCFU: difference of zone of inhibition values, in zone units; conditions: for Sum: C38ΔL1210 plus C38ΔCFU; for C38ΔL1210 / C38ΔCFU: difference between zone of inhibition values; for C38ΔL1210: Colon38 vs L1210 leukemia; for C38ΔCFU: Colon38 vs normal cell CFU-GM; for Product: potency multiplied by zone differentials
Procedure: A disk diffusion assay was performed to define the differential cell killing ability of 15-O-(3′-hydroxy-3′-isopropyl-4′-methylpentanoyl)bruceolide. Seven cell types were assayed: L1210 (ATCC CCL-219) (murine leukemia), CCRF-CEM (ATCC CCL-119) (human leukemia), Colon 38 (murine colon adenocarcinoma), HCT116 (ATCC CCL-247) (human colorectal carcinoma), H125 (human lung carcinoma). The murine and human granulocyte/macrophage progenitor cell line (CFU-GM), served as controls.
Colon 38 cells (about 1 gram) were cut into small fragments in 15 mL of Hank's Balanced Salt Solution (HBSS) over a 100-mesh sieve and gently forced through by the scissors with HBSS constantly perfusing the sieve. The resulting material was then drawn into and out of a 5 mL syringe without a needle to further disperse the cell clumps. The cell solution was diluted and plated in 0.3% agarose in DMEM plus 10% heat-inactivated Bovine Calf Serum (BCS). For plating of all of the cell types (except controls), the 60 mm plates were first prepared with a hard agar bottom layer (0.6% agar in RPMI-1640 plus 15% BCS).
A 15 μl sample of each compound was dropped onto a 6.5 mm disk (Baxter filter disks). The disks were allowed to dry overnight and then placed close to the edge of a petri dish. Depending upon the cell type, the dishes were incubated for 7 to 10 days, and examined by an inverted stereo-microscope (10×) for measurement of the zone of inhibition. The zone of inhibition was measured from the edge of the filter disk to the beginning of normal-sized colony formation. The diameter of the filter disk, 6.5 mm, was arbitrarily taken as a zone of 200 units. Compounds that were selective for killing solid tumors, as compared to leukemia or normal cells (“solid tumor selective”) were defined as those compounds which produced a difference in zones between solid tumor cells and either normal or leukemia cells of at least 250 units. The results of this analysis are set forth in Table 4, which illustrates the relative diameters of the zones of inhibition by various drugs on the growth of the respective cell types at various drug dilutions.
The degree of differential sensitivity of several inventive compounds was compared with respect to the Colon38 cell line, the L1210 cell line, and the control CFU-GM cell lines. The degree of differential sensitivity was estimated by calculating the difference between the zone of inhibition values, as determined in Example 6, for the solid tumor compared to either the leukemia (C38ΔL1210) or normal cell (C38ΔCFU).
The potency of each of several inventive compounds was determined by identifying the dilution required to yield an average zone of inhibition of 500 units for the Colon38 cell type. Then the potency and the zone differentials were multiplied to define a “product” (see Table 5), which can be used to rank the compounds tested for their potential for further development; the greater the product value the greater the probability of useful chemotherapeutic utility.

[2] = listed as 15-O-(allyloxycarbonyl) bruceolide

Compound	% Kill, LS-174T (LS-174T; 1 h exposure)	% Kill, LS-174T (LS-174T; 24 h exposure)	% Kill, SK-N-AS (SK-N-AS; 1 h exposure)	% Kill, SK-N-AS (SK-N-AS; 24 h exposure)	Sum [1]	C38ΔL1210 [1]	C38ΔCFU [1]	Product [1]	Sum [1, 2]	C38ΔL1210 [1, 2]	C38ΔCFU [1, 2]	Product [1, 2]
COC(=O)[C@@]12OC[C@]34[C@H]([C@@H](O)[C@@H]1O)[C@@]1(C)CC(=O)C(O)=C(C)[C@@H]1C[C@H]3OC(=O)[C@H](OC(=O)C1=CCCCC1)[C@@H]24 [15-O-(1′-cyclohexenoyl)-bruceolide]	12%	35%	0%	5%	550	200	350	550				
COC(=O)C12OCC34C(CC5C(C)=C(O)C(=O)CC5(C)C3C(O)C1O)OC(=O)C(OC(=O)C=Cc1ccccc1)C24 (stereo not shown) [15-O-cinnamyl-bruceolide]	16%	64%	0%	61%								
CCCCCC(=O)OC1C(=O)OC2CC3C(C)=C(O)C(=O)CC3(C)C3C(O)C(O)C4(C(=O)OC)OCC23C14 (stereo not shown) [15-O-hexanoylbruceolide]	19%	57%	0%	41%	600	400	200	600				
COC(=O)C12OCC34C(CC5C(C)=C(O)C(=O)CC5(C)C3C(O)C1O)OC(=O)C(OC(=O)CC1(O)CCCCC1)C24 (stereo not shown) [15-O-[(1′-hydroxycyclohexyl)-acetyl]-bruceolide]	23%	62%	16%	80%	750	300	450	3000				
CCC(O)(CC)CC(=O)OC1C(=O)OC2CC3C(C)=C(O)C(=O)CC3(C)C3C(O)C(O)C4(C(=O)OC)OCC23C14 (stereo not shown) [15-O-(3′-ethyl-3′-hydroxypentanoyl)-bruceolide]	10%	50%	6%	71%	850	350	500	3400				
C=CCOC(=O)OC1C(=O)OC2CC3C(C)=C(O)C(=O)CC3(C)C3C(O)C(OC(=O)OCC=C)C4(C(=O)OC)OCC23C14 (stereo not shown) [12,15-O,O-bis-(allyloxycarbonyl)-bruceolide]			0%	2%	650	300	350	650				
C=CCOC(=O)O[C@H]1C(=O)O[C@@H]2C[C@H]3C(C)=C(O)C(=O)C[C@]3(C)[C@H]3[C@@H](O)[C@H](O)[C@@]4(C(=O)OC)OC[C@]32[C@@H]14 [15-O-(allyloxycarbonyl)-bruceolide]	1%	43%	1%	43%	1050	500	550	4100	600	350	250	3600
COC(=O)C12OCC34C(CC5C(C)=C(O)C(=O)CC5(C)C3C(O)C1OC(=O)C=C(C)C(C)C)OC(=O)C(OC(=O)C=C(C)C(C)C)C24 (stereo not shown) [12-O-(3,4-dimethyl-2-pentenoyl)-bruceantin]			0%	0%								
COC(=O)C12OCC34C(CC5C(C)=C(O)C(=O)CC5(C)C3C(O)C1O)OC(=O)C(OC(=O)c1cc(C)oc1C)C24 (stereo not shown) [15-O-(2′,5′-dimethyl-3′-furoyl)-bruceolide]	12%	53%	0%	34%	1050	500	550	4200				
COC(=O)C12OCC34C(CC5C(C)=C(O)C(=O)CC5(C)C3C(O)C1OC(=O)OCC1COC(C)(C)O1)OC(=O)C(OC(=O)OCC1COC(C)(C)O1)C24 (stereo not shown) [12,15-O,O-bis(Solketyloxycarbonyl)-bruceolide]			3%	5%	1000	400	600	2000				
COC(=O)[C@@]12OC[C@]34[C@H]([C@@H](O)[C@@H]1O)[C@@]1(C)CC(=O)C(O)=C(C)[C@@H]1C[C@H]3OC(=O)[C@H](OC(=O)C=C1CCCCC1)[C@@H]24 [15-O-(cyclohexylideneacetyl)-bruceolide]	13%	63%			700	350	350	2800				
COC(=O)C12OCC34C(CC5C(C)=C(O)C(=O)CC5(C)C3C(O)C1O)OC(=O)C(OC(=O)CC(C)(C)O)C24 (stereo not shown) [15-O-(3′-hydroxy-3′-methylbutanoyl)-bruceolide]	29%	64%			950	400	550	2850				
CCC(=CC(=O)O[C@H]1C(=O)O[C@@H]2C[C@H]3C(C)=C(O)C(=O)C[C@]3(C)[C@H]3[C@@H](O)[C@H](O)[C@@]4(C(=O)OC)OC[C@]32[C@@H]14)CC [15-O-(3′-ethyl-2′-pentene-oyl)-brucelide]	24%	64%	0%	66%								
COC(=O)C12OCC34C(CC5C(C)=C(O)C(=O)CC5(C)C3C(O)C1O)OC(=O)C(OC(=O)OCC1COC(C)(C)O1)C24 (stereo not shown) [15-O-(solketyloxycarbonyl)-bruceolide]			0%	28%	950	400	550	1900				
CCCCCCCCC=CCCCCCCCC(=O)OC1C(=O)OC2CC3C(C)=C(O)C(=O)CC3(C)C3C(O)C(O)C4(C(=O)OC)OCC23C14 (stereo not drawn) [15-O-(cis-9′-octadecenoyl)-bruceolide]	4%	13%	0%	0%								
COC(=O)C12OCC34C(CC5C(C)=C(O)C(=O)CC5(C)C3C(O)C1O)OC(=O)C(OC(=O)C=C1CCCC1)C24 (stereo not shown) [15-O-(cyclopentylideneacetyl)-bruceolide]	0%	50%	0%	50%	800	350	450	4000				
COC(=O)[C@@]12OC[C@]34[C@H]([C@@H](O)[C@@H]1O)[C@@]1(C)CC(=O)C(O)=C(C)[C@@H]1C[C@H]3OC(=O)[C@H](OC(=O)CC1(O)CCCC1)[C@@H]24 [15-O-[(1′-hydroxycyclopentyl)-acetyl]-bruceolide]	36%	65%			1300	600	700	5200				
COC(=O)C12OCC34C(CC5C(C)=C(O)C(=O)CC5(C)C3C(O)C1O)OC(=O)C(OC(=O)Cc1ccccc1)C24 (stereo not shown) [15-O-phenylacetyl bruceolide]	20%	61%	0%	38%	1000	500	500	4000				
